Patent publication US5171746A, “Thiazole and imidazole derivatives and antiulcer composition containing same” (priority 1990, dated 1992)
In brackets after ≈: the same amount, converted by molar mass.

Tests used:
[1] = tested on: Helicobacter pylori HI-0015; assay: Antimicrobial activity, agar plate dilution method (strain HI-0015); assay type: cell-based; conditions: HI0015, 48 h, two days at 37° C., read-out: MINIMUM GROWTH INHIBITION CONCENTRATION
From the text: (§1) Helicobacter pylori is Gram negative microaerophile which has been recently isolated from human tunica mucosa ventriculi and seems to serve for pathopoiesis and recurrence of ulcer in alimentary canal. The compounds of formula (I) show an antimicrobial activity to inhibit the growth of Helicobacter pylori.
(§2) The media used were that of Muller-Hinton liquid medium (BBL) containing 7% horse serum, and of Heart-Infusin agar medium (Difco) containing 5% horse defibrinized blood. The culture was incubated for two days at 37° C. using Gaspack (BBL) without a catalyst.

[2] = tested on: Helicobacter pylori HI-0001; assay: Antimicrobial activity, agar plate dilution method (strain HI-0001); assay type: cell-based; conditions: HI0001, 48 h, two days at 37° C., read-out: MINIMUM GROWTH INHIBITION CONCENTRATION
From the text: as §1, §2

[3] = tested on: Water-immersion induced stress ulcer; assay: Water-immersion induced stress ulcer; assay type: in vivo, Wister male rats; conditions: rats, single dose 30 mg/kg in 0.5% CMC one hour prior to stressing (water immersion, 6 h); for inhibition in vivo at 30 mg/kg: Rattus norvegicus
Experimental: Wister male rats (11-week age) fasted for 18 hours were placed in a restraint cage, which was in turn immersed to a depth of the pectoral region in water at 20 to 22° C. to leave the rats under stress for six hours. Then, the rats were drawn up from the water and put down by vertebral dislocation. Afterwards, the stomach was removed, infused with 5 ml of a 5% aqueous solution of formalin and was wholly immersed in the same solution for 30 minutes for fixation. The fixed sample was dissected along the curvature ventriculi major, and the ulcer regions were measured along their major length (in mm) by means of slide calipers. The total sum of the measurements per rat is a value of ulcer index.
The compounds under test shown in TABLE 3, suspended in 0.5% carboxymethylcellulose (CMC), were administered to the rats at a single dose of 30 mg/kg body weight of the compound one hour prior to the stressing. To a control group, only 0.5% CMC was administered. The antiulcer activity was calculated according to the following equation: [formula]

Acute toxicity = assay type: in vivo; conditions: mice, three per group
Ethanol-induced ulcer = assay: Ethanol-induced ulcer; assay type: in vivo, Donryu masculine rats; conditions: rats; 100% ethanol 5 ml/kg orally; compound in 0.5% CMC orally at 5 ml/kg; one hour
Experimental: Five (5) ml/kg of 100% ethanol was orally administered to Donryu masculine rats fasted for 48 hours and dehydrated for 24 hours. Then, the compounds under test, suspended in 0.5% CMC, were orally administered to the rats at a dose of 5 ml/kg body weight. One hour later, the rats were put down in a similar manner as mentioned above to remove and treat the stomach.

**Q.** What does the source list for CC1(C)S[C@@H]2[C@H](NC(=O)[C@H](N)c3ccccc3)C(=O)N2[C@H]1C(=O)O [Aminobenzylpenicillin, reference compound]?
**A.** MIC [1]: 0.2 µg/mL (≈ 0.572 µM); MIC [2]: 0.025 µg/mL (≈ 0.0715 µM)

**Q.** With CCOCC[S+]([O-])c1nc(-c2cccnc2)cs1 (stereo not shown) [Example 2, 2-[(2-ethoxyethyl)sulfinyl]-4-(3-pyridyl)thiazole] as the compound, how does the inhibition in vivo at 30 mg/kg [3] read?
**A.** Its inhibition in vivo at 30 mg/kg is 72.5%.

**Q.** Which inhibition in vivo at 30 mg/kg [3] does the source give for CC(C)N(CC[S+]([O-])c1nc(-c2cccnc2)cs1)C(C)C (stereo not shown) [Example 8] here?
**A.** The inhibition in vivo at 30 mg/kg was 70.5%.

**Q.** With CCOCC[S+]([O-])c1ncc(-c2ccccc2)s1 (stereo not shown) [Example 12, 2-[(2-ethoxyethyl)sulfinyl]-5-phenylthiazole] as the compound, how does the inhibition in vivo at 30 mg/kg [3] read?
**A.** The inhibition in vivo at 30 mg/kg was 52.5%.

**Q.** Which inhibition in vivo at 30 mg/kg [3] does the source give for CCOCC[S+]([O-])c1nc(-c2ccsc2)cs1 (stereo not shown) [Example 14, 2-[(2-ethoxyethyl)sulfinyl]-4-(3-thienyl)thiazole] here?
**A.** The inhibition in vivo at 30 mg/kg was 62.7%.

**Q.** And the MIC [1]?
**A.** The MIC was 100 µg/mL (≈ 348 µM).

**Q.** What about the MIC [2] of the same compound?
**A.** Its MIC is 50 µg/mL (≈ 174 µM).

**Q.** Which inhibition in vivo at 30 mg/kg [3] does the source give for CCNC(=O)NCC[S+]([O-])c1nc2cc(Cl)ccc2s1 (stereo not shown) [Example 22, N-(5-chlorobenzothiazol-2-yl)sulfinylethyl--N'-ethylurea] here?
**A.** Its inhibition in vivo at 30 mg/kg is 63.1%.

**Q.** Which MIC [1] does the source give for O=C(NCCCl)NCCSc1nc2cc(Cl)ccc2s1 [Example 23, N-(5-chlorobenzothiazol-2-yl)thioethyl--N'-(2-chloroethyl)urea] here?
**A.** The MIC was 12.5 µg/mL (≈ 35.7 µM).

**Q.** And the MIC [2]?
**A.** Its MIC is 12.5 µg/mL (≈ 35.7 µM).

**Q.** Which inhibition in vivo at 30 mg/kg [3] does the source give for O=C(NCCCl)NCC[S+]([O-])c1nc2cc(Cl)ccc2s1 (stereo not shown) [Example 24, N-(5-chlorobenzothiazol-2-y1)sulfinylethyl--N'-(2-chloroethyl)urea] here?
**A.** Its inhibition in vivo at 30 mg/kg is 70.1%.

**Q.** For CCNC(=S)NCCSc1nc2cc(Cl)ccc2s1 [Example 25, N-(5-chlorobenzothiazol-2-yl)thioethyl--N'-ethylthiourea], which inhibition in vivo at 30 mg/kg [3] is on record?
**A.** Its inhibition in vivo at 30 mg/kg is 64.2%.

**Q.** What about the MIC [1] of the same compound?
**A.** Its MIC is 0.025 µg/mL (≈ 0.0753 µM).

**Q.** What about the MIC [2] of the same compound?
**A.** Its MIC is 0.025 µg/mL (≈ 0.0753 µM).

**Q.** Which MIC [1] does the source give for CCN=C(NC#N)NCCSc1nc2cc(Cl)ccc2s1 [Example 27, N-(5-chlorobenzothiazol-2-yl)thioethyl--N'-cyano--N"-ethylguanidine] here?
**A.** The MIC was 12.5 µg/mL (≈ 36.8 µM).

**Q.** And the MIC [2]?
**A.** Its MIC is 12.5 µg/mL (≈ 36.8 µM).

**Q.** With CCN=C(NC#N)NCC[S+]([O-])c1nc2cc(Cl)ccc2s1 (stereo not shown) [Example 28, N-(5-chlorobenzothiazol-2-yl)sulfinylethyl--N'-cyano--N"-ethylguanidine] as the compound, how does the inhibition in vivo at 30 mg/kg [3] read?
**A.** Its inhibition in vivo at 30 mg/kg is 57%.

**Q.** Which “Acute toxicity (deaths)” value (Acute toxicity; intraperitoneal dose of 100 mgkg) does the source give for Clc1ccc2sc(SCCN3CCOCC3)nc2c1 [Example 31, 5-chloro-2-[(2-morpholinoethyl)thio]benzothiazole] here?
**A.** Its value is “none of the animals were sacrificed”.

**Q.** And the “Acute toxicity (deaths)” value (Acute toxicity; peroral dose of 300 mgkg)?
**A.** Its value is “none of the animals were sacrificed”.

**Q.** Which depression of erosion (Ethanol-induced ulcer) does the source give for [O-][S+](CCN1CCOCC1)c1nc2cc(Cl)ccc2s1 (stereo not shown) [Example 32, 5-chloro-2-[(2-morpholinoethyl)sulfinyl]benzothiazole] here?
**A.** The depression of erosion was 93.0%.

**Q.** And the inhibition in vivo at 30 mg/kg [3]?
**A.** Its inhibition in vivo at 30 mg/kg is 83.1%.

**Q.** What about the MIC [1] of the same compound?
**A.** Its MIC is 3.13 µg/mL (≈ 9.46 µM).

**Q.** What about the MIC [2] of the same compound?
**A.** Its MIC is 1.56 µg/mL (≈ 4.71 µM).

**Q.** Which inhibition in vivo at 30 mg/kg [3] does the source give for [O-][S+](CCN1CCOCC1)c1nc2cccc(Cl)c2s1 (stereo not shown) [Example 35, 7-chloro-2-[(2-morpholinoethyl)sulfinyl]benzothiazole] here?
**A.** The inhibition in vivo at 30 mg/kg was 72.1%.

**Q.** What about the MIC [1] of the same compound?
**A.** Its MIC is 6.25 µg/mL (≈ 18.9 µM).

**Q.** And the MIC [2]?
**A.** Its MIC is 3.13 µg/mL (≈ 9.46 µM).

**Q.** Which inhibition in vivo at 30 mg/kg [3] does the source give for [O-][S+](CCN1CCOCC1)c1nc2ccc(Cl)cc2s1 (stereo not shown) [Example 37, 6-chloro-2-[(2-morpholinoethyl)sulfinyl]benzothiazole] here?
**A.** Its inhibition in vivo at 30 mg/kg is 78%.

**Q.** What about the MIC [1] of the same compound?
**A.** The MIC was 6.25 µg/mL (≈ 18.9 µM).

**Q.** And the MIC [2]?
**A.** The MIC was 3.13 µg/mL (≈ 9.46 µM).

**Q.** For CN1CCCC1CC[S+]([O-])c1nc2cc(Cl)ccc2s1 (stereo not shown) [Example 47, 5-chloro-2-{[2-(N-methylpyrrolidin-2-Y1)ethyl]sulfinyl}benzothiazole], which MIC [1] is on record?
**A.** Its MIC is 3.13 µg/mL (≈ 9.52 µM).

**Q.** What about the MIC [2] of the same compound?
**A.** The MIC was 0.39 µg/mL (≈ 1.19 µM).

**Q.** With [O-][S+](CCN1CCOCC1)c1nc2ccc(Cl)cc2[nH]1 (stereo not shown) [Example 49, 5-chloro-2-[(2-morpholinoethyl)sulfinyl]benzimidazole] as the compound, how does the inhibition in vivo at 30 mg/kg [3] read?
**A.** The inhibition in vivo at 30 mg/kg was 63.6%.

**Q.** Which inhibition in vivo at 30 mg/kg [3] does the source give for CCOCC[S+]([O-])c1nc2cccc(Cl)c2s1 (stereo not shown) [Example 61, 7-chloro-2-[(2-ethoxyethyl)sulfinyl]benzothiazole] here?
**A.** The inhibition in vivo at 30 mg/kg was 61.8%.

**Q.** With CCOCC[S+]([O-])c1nc2ccc(Cl)cc2s1 (stereo not shown) [Example 63, 6-chloro-2-[(2-ethoxyethyl)sulfinyl]benzothiazole] as the compound, how does the inhibition in vivo at 30 mg/kg [3] read?
**A.** Its inhibition in vivo at 30 mg/kg is 76.5%.

**Q.** What about the MIC [1] of the same compound?
**A.** Its MIC is 6.25 µg/mL (≈ 21.6 µM).

**Q.** What about the MIC [2] of the same compound?
**A.** Its MIC is 3.13 µg/mL (≈ 10.8 µM).

**Q.** With [O-][S+](CCOCCCl)c1nc2cc(Cl)ccc2s1 (stereo not shown) [Example 67, 5-chloro-2-{[2-(2-chloroethoxy)ethyl]sulfinyl}benzothiazole] as the compound, how does the “Inhibition (%)” value [3] read?
**A.** Its value is 53.3%.

**Q.** With CCOCC[S+]([O-])c1nc2ccc(OC)cc2[nH]1 (stereo not shown) [Example 72, 5-methoxy-2-[(2-ethoxyethyl)sulfinyl]benzimidazole] as the compound, how does the inhibition in vivo at 30 mg/kg [3] read?
**A.** The inhibition in vivo at 30 mg/kg was 65.6%.

**Q.** With CCOCC[S+]([O-])c1nc2cc(C(F)(F)F)ccc2s1 (stereo not shown) [Example 76, 5-trifluoromethyl-2-[(2-ethoxyethyl)sulfinyl]benzothiazole] as the compound, how does the inhibition in vivo at 30 mg/kg [3] read?
**A.** Its inhibition in vivo at 30 mg/kg is 61.3%.

**Q.** Which inhibition in vivo at 30 mg/kg [3] does the source give for CCOCC[S+]([O-])c1nc2cc([N+](=O)[O-])ccc2s1 (stereo not shown) [Example 78, 5-nitro-2-[(2-ethoxyethyl)sulfinyl]benzothiazole] here?
**A.** Its inhibition in vivo at 30 mg/kg is 60.7%.

**Q.** What about the MIC [1] of the same compound?
**A.** The MIC was 6.25 µg/mL (≈ 20.8 µM).

**Q.** And the MIC [2]?
**A.** The MIC was 6.25 µg/mL (≈ 20.8 µM).

**Q.** Which MIC [1] does the source give for CC1COc2c(N3CCN(C)CC3)c(F)cc3c(=O)c(C(=O)O)cn1c23 (stereo not shown) [Ofloxacin, reference compound] here?
**A.** The MIC was 0.78 µg/mL (≈ 2.16 µM).

**Q.** And the MIC [2]?
**A.** The MIC was 0.78 µg/mL (≈ 2.16 µM).

**Q.** Which inhibition in vivo at 30 mg/kg [3] does the source give for COc1ccc2[nH]c([S+]([O-])Cc3ncc(C)c(OC)c3C)nc2c1 (stereo not shown) [Omeprazole, reference compound] here?
**A.** The inhibition in vivo at 30 mg/kg was 90%.
